Measurements as given in patent publication US20090221518A1, “Compositions and Methods for Treatment of Exudative Serous Effusion” (Anaborex, Inc., priority 2007, published 2009).
Marks after values point to notes of the source that are not given here.

Legend:
[1] = system: lung cancer; settings: lung cancer patients; cited from earlier work
[2] = system: Yoshida AH-130 ascites hepatoma (AH) cells; assay: Ascites volume in rat AH (Yoshida AH-130 ascites hepatoma) model; format: in vivo, female Wistar rats; settings: for Ascites (mL) Mean: AH-inoculated rats
Description: Following the method of Busquets et al., female Wistar rats were inoculated (Day 0) intraperitoneally (ip) with 2×10^7 cells/animal of Yoshida AH-130 ascites hepatoma (AH) cells. Control animals were inoculated with an equivalent amount of sterile saline solution. […] The roxithromycin dosing solution was 2 mg/mL in 20 mM citrate, pH of 5.5, and 4.5% mannitol in water. The animals were sacrificed on Day 5. Upon sacrifice ascites fluid was withdrawn by syringe and the volume determined. Three different experiments were performed. In each experiment one control group received an ascites hepatoma (AH) inoculation with vehicle treatment, and a second control group received saline inoculation with vehicle treatment. In Experiment 1, the single treatment group received 5 mg/kg roxithromycin (ip). Ascites volumes were determined. In Experiment 2, the single treatment group received 50 mg/kg roxithromycin (ip). Ascites volumes, serum albumin concentrations, and CRP levels in dissected gastrocnemius muscle were determined. AH cell counts and cell viability (%) were determined in recovered ascites fluid. In Experiment 3, one treatment group received 40 mg/kg (ip) roxithromycin, and a second treatment group received 40 mg/kg (po). Ascites volumes, plasma CRP and VEGF concentrations, and ascites CRP and VEGF concentrations were determined.

[3] = system: Yoshida AH-130 ascites hepatoma (AH) cells; assay: AH cell count and viability in recovered ascites fluid, rat AH model; format: in vivo, female Wistar rats
Description: Following the method of Busquets et al., female Wistar rats were inoculated (Day 0) intraperitoneally (ip) with 2×10^7 cells/animal of Yoshida AH-130 ascites hepatoma (AH) cells. Control animals were inoculated with an equivalent amount of sterile saline solution. […] The roxithromycin dosing solution was 2 mg/mL in 20 mM citrate, pH of 5.5, and 4.5% mannitol in water.
For the cell count measurements in ascites, the cells were counted directly from the ascites collected at necropsy from N 4 animals in […]. A […] aliquot was taken from each sample and diluted 1:500 with trypan blue. The sample was then placed onto a hemacytometer and both sides counted to determine the total number of viable and non-viable AH cells.
In Experiment 2, the single treatment group received 50 mg/kg roxithromycin (ip). Ascites volumes, serum albumin concentrations, and CRP levels in dissected gastrocnemius muscle were determined. AH cell counts and cell viability (%) were determined in recovered ascites fluid.

[4] = system: serum albumin; assay: Serum albumin concentration, rat AH model; format: in vivo, female Wistar rats; settings: Experiment 2; 50 mg/kg ip
Description: Following the method of Busquets et al., female Wistar rats were inoculated (Day 0) intraperitoneally (ip) with 2×10^7 cells/animal of Yoshida AH-130 ascites hepatoma (AH) cells. Control animals were inoculated with an equivalent amount of sterile saline solution. […] The roxithromycin dosing solution was 2 mg/mL in 20 mM citrate, pH of 5.5, and 4.5% mannitol in water. […] In Experiment 2, the single treatment group received 50 mg/kg roxithromycin (ip). Ascites volumes, serum albumin concentrations, and CRP levels in dissected gastrocnemius muscle were determined. AH cell counts and cell viability (%) were determined in recovered ascites fluid.

[5] = system: C-reactive protein (CRP); assay: C-reactive protein in gastrocnemius muscle lysate (Quantikine Rat CRP Immunoassay Kit), rat AH model; format: in vivo, female Wistar rats; settings: Experiment 2, 50 mg/kg ip
Description: Following the method of Busquets et al., female Wistar rats were inoculated (Day 0) intraperitoneally (ip) with 2×10^7 cells/animal of Yoshida AH-130 ascites hepatoma (AH) cells. Control animals were inoculated with an equivalent amount of sterile saline solution. […] The roxithromycin dosing solution was 2 mg/mL in 20 mM citrate, pH of 5.5, and 4.5% mannitol in water. Serum samples were collected prior to sacrifice on D5 and assayed for serum albumin concentration. After determination of gastrocnemius muscle wet weight, some gastrocnemius samples were lysed and determinations made of C-reactive protein (CRP, using Quantikine Rat CRP Immunoassay Kit) and total protein. A commercial immunoassay kit (Quantikine Rat VEGF Immunoassay, R & D Systems PN RRV00) was used to determine Vascular Endothelial Growth Factor (VEGF) concentration in plasma and ascites. Similarly, CRP concentration in plasma and ascites was determined using a commercial kit (Rat High-Sensitive CRP ELISA Method, Kamiya Biochemical PN KT099). In Experiment 2, the single treatment group received 50 mg/kg roxithromycin (ip). Ascites volumes, serum albumin concentrations, and CRP levels in dissected gastrocnemius muscle were determined. AH cell counts and cell viability (%) were determined in recovered ascites fluid.

[6] = system: C-reactive protein (CRP); assay: CRP concentration in plasma and ascites (Rat High-Sensitive CRP ELISA), rat AH model; format: in vivo, female Wistar rats; settings: Experiment 3; for Ascites [CRP] Mean: ascites fluid; for Ascites CRP ng/rat Mean: concentration times ascites volume; for Plasma [CRP] Mean: AH-inoculated
Description: (§1) Following the method of Busquets et al., female Wistar rats were inoculated (Day 0) intraperitoneally (ip) with 2×10^7 cells/animal of Yoshida AH-130 ascites hepatoma (AH) cells. Control animals were inoculated with an equivalent amount of sterile saline solution. […] The roxithromycin dosing solution was 2 mg/mL in 20 mM citrate, pH of 5.5, and 4.5% mannitol in water. Serum samples were collected prior to sacrifice on D5 and assayed for serum albumin concentration. After determination of gastrocnemius muscle wet weight, some gastrocnemius samples were lysed and determinations made of C-reactive protein (CRP, using Quantikine Rat CRP Immunoassay Kit) and total protein. A commercial immunoassay kit (Quantikine Rat VEGF Immunoassay, R & D Systems PN RRV00) was used to determine Vascular Endothelial Growth Factor (VEGF) concentration in plasma and ascites. Similarly, CRP concentration in plasma and ascites was determined using a commercial kit (Rat High-Sensitive CRP ELISA Method, Kamiya Biochemical PN KT099). In Experiment 3, one treatment group received 40 mg/kg (ip) roxithromycin, and a second treatment group received 40 mg/kg (po). Ascites volumes, plasma CRP and VEGF concentrations, and ascites CRP and VEGF concentrations were determined.

[7] = system: Vascular Endothelial Growth Factor (VEGF); assay: VEGF concentration in plasma and ascites (Quantikine Rat VEGF Immunoassay), rat AH model; format: in vivo, female Wistar rats; settings: Experiment 3; for Ascites [VEGF] Mean: ascites fluid; for Ascites VEGF pg/rat Mean: concentration times ascites volume
Description: as §1

[8] = macrolide given to rats prior to carrageenan stimulation; cited from earlier work
[9] = Experiment 2, ascites, AH-inoculated, 50 mg/kg ip, N = 4

## CC[C@H]1OC(=O)[C@H](C)[C@@H](O[C@H]2C[C@@](C)(OC)[C@@H](O)[C@H](C)O2)[C@H](C)[C@@H](O[C@@H]2O[C@H](C)C[C@H](N(C)C)[C@H]2O)[C@](C)(OC)C[C@@H](C)C(=O)[C@H](C)[C@@H](O)[C@]1(C)O [clarithromycin]
[1]
  IL6 levels: reduced
  Median survival time: significantly increased

## CC[C@H]1OC(=O)[C@H](C)[C@@H](O[C@H]2C[C@@](C)(OC)[C@@H](O)[C@H](C)O2)[C@H](C)[C@@H](O[C@@H]2O[C@H](C)C[C@H](N(C)C)[C@H]2O)[C@](C)(O)C[C@@H](C)/C(=N\OCOCCOC)[C@H](C)[C@@H](O)[C@]1(C)O [roxithromycin]
[2]; Experiment 1, 5 mg/kg (ip), difference not statistically significant
  Accumulated ascites fluid versus vehicle control: lowered the accumulated ascites fluid
[2]; Experiment 1, 5 mg/kg ip qd from Day 1, sacrifice Day 5
  Ascites (mL) Mean: 3.48** mL
[2]; Experiment 2, 50 mg/kg ip
  Accumulated ascites volume versus vehicle control: very significantly reduced
[2]; Experiment 2, 50 mg/kg ip qd, Day 5
  Ascites (mL) Mean: 2.92 mL
[2]; Experiment 3, 40 mg/kg given either po or ip
  Accumulated ascites volume versus vehicle control: very significantly reduced
[2]; Experiment 3, 40 mg/kg i.p. qd, Day 5
  Ascites (mL) Mean: 3.0 mL
[2]; Experiment 3, 40 mg/kg oral, bid, Day 5
  Ascites (mL) Mean: 3.7 mL
[3]; Experiment 2, 50 mg/kg ip
  AH cell densities or cell counts versus vehicle control: did not reduce
[3]; Experiment 2, ascites AH cells, trypan blue, 50 mg/kg ip, N = 4
  Viable Cells % Mean: 99%
[3]; [9]
  Cells/mL × 10^6 Mean: 338 Cells/mL × 10^6
  Total Cells # × 10^6 Mean: 2,077 × 10^6
[3]; rat AH model, conclusion from cell counts and viability
  Cytostatic or cytotoxic activity toward ascites hepatoma cells: does not appear to be cytostatic or cytotoxic
[4]
  Serum albumin levels versus AH-inoculated vehicle animals: did not significantly change
[5]
  Muscle CRP levels versus AH-inoculated vehicle animals: did significantly reduce
[5]; gastrocnemius muscle, AH-inoculated rats
  Muscle CRP Mean: 28.5 ng/mg total protein
[6]; 40 mg/kg given either orally or intraperitoneally
  Total CRP per rat in ascites versus vehicle control: statistically significantly reduced
[6]; 40 mg/kg ip
  Plasma CRP concentration versus vehicle-treated animals: lowered plasma CRP concentration compared with the vehicle-treated animals, but the differences were not statistically significant
[6]; 40 mg/kg oral
  Plasma CRP concentration versus vehicle-treated animals: very significantly lowered
[6]; 40 mg/kg i.p. qd (Group 9)
  Ascites [CRP] Mean: 230 ng/mL
  Ascites CRP ng/rat Mean: 530 ng/rat
[6]; 40 mg/kg oral, bid (Group 10)
  Ascites [CRP] Mean: 287 ng/mL
  Ascites CRP ng/rat Mean: 730 ng/rat
[6]; 40 mg/kg i.p. qd
  Plasma [CRP] Mean: 709 µg/mL
[6]; 40 mg/kg oral, bid
  Plasma [CRP] Mean: 593 µg/mL
[7]; 40 mg/kg i.p. qd (Group 9)
  Ascites [VEGF] Mean: 4,590 pg/mL
  Ascites VEGF pg/rat Mean: 10,200 pg/rat
[7]; 40 mg/kg oral, bid (Group 10)
  Ascites [VEGF] Mean: 4,040 pg/mL
  Ascites VEGF pg/rat Mean: 9,900 pg/rat
[7]; plasma, 40 mg/kg ip qd or oral bid
  Plasma VEGF concentration: below the immunoassay method quantitation limit
[7]; rat AH model
  Influence on VEGF levels: does not influence VEGF levels
[8]
  Exudate accumulation in rat paws: limit exudate accumulation
